Assay results from BindingDB's records for doi:10.7270/Q26M3571 (Nmmlsc, 2007).

The compounds below were run against T1, N-formyl peptide receptor 2 (Homo sapiens, UniProt P25090) (assay: human FPR2 ligand displacement potency – cell-based, flow cytometry, Ki from IC50, selectivity assay for FPR1 ligand SAR project, dose response (AID 723)).
T1 sequence (P25090 whole entry): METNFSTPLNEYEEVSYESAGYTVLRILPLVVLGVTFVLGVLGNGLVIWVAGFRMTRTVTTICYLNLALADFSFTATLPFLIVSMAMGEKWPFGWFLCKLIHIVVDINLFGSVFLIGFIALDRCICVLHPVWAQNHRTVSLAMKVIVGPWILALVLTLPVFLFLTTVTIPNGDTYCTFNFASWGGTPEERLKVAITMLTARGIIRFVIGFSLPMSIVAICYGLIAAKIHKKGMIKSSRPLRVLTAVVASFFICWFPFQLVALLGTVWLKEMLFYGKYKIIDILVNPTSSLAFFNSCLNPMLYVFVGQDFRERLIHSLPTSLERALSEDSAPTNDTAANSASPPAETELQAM

Structure (SMILES) | Ki [µM]
COCCN1C(=O)C(=O)C(C(=O)c2ccccc2)C1c1ccccc1OC (stereo unspecified) [(4E)-1-(2-methoxyethyl)-5-(2-methoxyphenyl)-4-[oxidanyl(phenyl)methylidene]pyrrolidine-2,3-dione] | > 40.3
COc1ccc(OC)c(C2C(C(=O)c3ccccc3)C(=O)C(=O)N2c2ccc(C)c(Cl)c2)c1 (stereo unspecified) [(4E)-1-(3-chloranyl-4-methyl-phenyl)-5-(2,5-dimethoxyphenyl)-4-[oxidanyl(phenyl)methylidene]pyrrolidine-2,3-dione] | > 40.3
COc1ccc(C2C(C(=O)c3ccccc3)C(=O)C(=O)N2c2cccc(Cl)c2)c(OC)c1 (stereo unspecified) [(4E)-1-(3-chlorophenyl)-5-(2,4-dimethoxyphenyl)-4-[hydroxy(phenyl)methylene]pyrrolidine-2,3-quinone] | > 40.3
COCCCN1C(=O)C(=O)C(C(=O)c2ccccc2)C1c1ccc(C(C)C)cc1 (stereo unspecified) [(4E)-1-(3-methoxypropyl)-4-[oxidanyl(phenyl)methylidene]-5-(4-propan-2-ylphenyl)pyrrolidine-2,3-dione] | > 40.3
Cc1ccc(C(=O)C2C(=O)C(=O)N(c3nnc(C)s3)C2c2ccc(C(C)C)cc2)cc1 (stereo unspecified) [(4E)-4-[(4-methylphenyl)-oxidanyl-methylidene]-1-(5-methyl-1,3,4-thiadiazol-2-yl)-5-(4-propan-2-ylphenyl)pyrrolidine-2,3-dione] | > 40.3
CC(C)c1ccc(C2C(C(=O)c3ccccc3)C(=O)C(=O)N2Cc2cccnc2)cc1 (stereo unspecified) [(4E)-4-[hydroxy(phenyl)methylene]-5-p-cumenyl-1-(3-pyridylmethyl)pyrrolidine-2,3-quinone] | > 40.3
COc1ccc(C2C(C(=O)c3ccccc3)C(=O)C(=O)N2CCCn2ccnc2)c(OC)c1 (stereo unspecified) [(4E)-5-(2,4-dimethoxyphenyl)-1-(3-imidazol-1-ylpropyl)-4-[oxidanyl(phenyl)methylidene]pyrrolidine-2,3-dione] | > 40.3
COc1ccc(C2C(C(=O)c3ccc(C)cc3)C(=O)C(=O)N2Cc2cccnc2)c(OC)c1 (stereo unspecified) [(4E)-5-(2,4-dimethoxyphenyl)-4-[(4-methylphenyl)-oxidanyl-methylidene]-1-(pyridin-3-ylmethyl)pyrrolidine-2,3-dione] | > 40.3
COCCN1C(=O)C(=O)C(C(=O)c2ccccc2)C1c1cc(OC)ccc1OC (stereo unspecified) [(4E)-5-(2,5-dimethoxyphenyl)-1-(2-methoxyethyl)-4-[oxidanyl(phenyl)methylidene]pyrrolidine-2,3-dione] | > 40.3
COc1ccc(OC)c(C2C(C(=O)c3ccccc3)C(=O)C(=O)N2c2cccnc2)c1 (stereo unspecified) [(4E)-5-(2,5-dimethoxyphenyl)-4-[hydroxy(phenyl)methylene]-1-(3-pyridyl)pyrrolidine-2,3-quinone] | > 40.3
COCCCN1C(=O)C(=O)C(C(=O)c2ccccc2)C1c1ccc(O)c(OC)c1 (stereo unspecified) [(4E)-5-(3-methoxy-4-oxidanyl-phenyl)-1-(3-methoxypropyl)-4-[oxidanyl(phenyl)methylidene]pyrrolidine-2,3-dione] | > 40.3
O=C1C(=O)N(CN2CCOCC2)C(c2ccc(Br)cc2)C1C(=O)c1ccccc1 (stereo unspecified) [(4E)-5-(4-bromophenyl)-1-(morpholin-4-ylmethyl)-4-[oxidanyl(phenyl)methylidene]pyrrolidine-2,3-dione] | > 40.3
O=C1NC(c2ccc(Br)cc2)C(C(=O)c2ccc(Cl)cc2)C1=O (stereo unspecified) [(4E)-5-(4-bromophenyl)-4-[(4-chlorophenyl)-hydroxy-methylene]pyrrolidine-2,3-quinone] | > 40.3
Cc1ccc(C(=O)C2C(=O)C(=O)N(Cc3cccnc3)C2c2ccc(Br)cc2)cc1 (stereo unspecified) [(4E)-5-(4-bromophenyl)-4-[(4-methylphenyl)-oxidanyl-methylidene]-1-(pyridin-3-ylmethyl)pyrrolidine-2,3-dione] | > 40.3
Cc1ccc(N2C(=O)C(=O)C(C(=O)c3ccccc3)C2c2cccc(F)c2)cc1Br (stereo unspecified) [(4Z)-1-(3-bromanyl-4-methyl-phenyl)-5-(3-fluorophenyl)-4-[oxidanyl(phenyl)methylidene]pyrrolidine-2,3-dione] | > 40.3
CCCCCCN1C(=O)C(=O)C(C(=O)c2ccccc2)C1c1ccc(O)c(OC)c1 (stereo unspecified) [(4Z)-1-hexyl-5-(3-methoxy-4-oxidanyl-phenyl)-4-[oxidanyl(phenyl)methylidene]pyrrolidine-2,3-dione] | > 40.3
COc1ccc(C(=O)C2C(=O)C(=O)NC2c2ccc(OC)cc2OC)cc1 (stereo unspecified) [(4Z)-5-(2,4-dimethoxyphenyl)-4-[(4-methoxyphenyl)-oxidanyl-methylidene]pyrrolidine-2,3-dione] | > 40.3
CCCCCCOc1cccc(N2C(=O)C(=O)C(C(=O)c3ccccc3)C2c2cccc(F)c2)c1 (stereo unspecified) [(4Z)-5-(3-fluorophenyl)-1-(3-hexoxyphenyl)-4-[hydroxy(phenyl)methylene]pyrrolidine-2,3-quinone] | > 40.3
O=C1C(=O)N(c2ccc(F)cc2)C(c2ccc(Br)cc2)C1C(=O)c1ccccc1 (stereo unspecified) [(4Z)-5-(4-bromophenyl)-1-(4-fluorophenyl)-4-[hydroxy(phenyl)methylene]pyrrolidine-2,3-quinone] | > 40.3
N#Cc1c(N=C(CC(=O)c2ccccc2)C(=O)O)sc2c1CCC2 [(Z)-2-[(3-cyano-5,6-dihydro-4H-cyclopenta[b]thiophen-2-yl)amino]-4-keto-4-phenyl-but-2-enoic acid] | > 40.3

The next lines start with the values.

Ki [µM] | Structure (SMILES)
> 40.3 | CC(=O)C1C(=O)C(=O)N(CCc2c(C)[nH]c3ccccc23)C1c1cccc(F)c1 (stereo unspecified)
> 40.3 | COc1ccc(C(=O)C2C(=O)C(=O)N(CCc3c[nH]c4ccccc34)C2c2ccc(C(C)C)cc2)cc1 (stereo unspecified)
> 40.3 | COc1ccc(C2C(C(=O)c3cccs3)C(=O)C(=O)N2CCCn2ccnc2)cc1 (stereo unspecified) [1-(3-imidazol-1-ylpropyl)-2-(4-methoxyphenyl)-4-oxidanyl-3-thiophen-2-ylcarbonyl-2H-pyrrol-5-one]
> 40.3 | COc1cc(C2C(C(C)=O)C(=O)C(=O)N2c2ccc(Br)cc2)ccc1O (stereo unspecified) [1-(4-bromophenyl)-3-ethanoyl-2-(3-methoxy-4-oxidanyl-phenyl)-4-oxidanyl-2H-pyrrol-5-one]
> 40.3 | COc1ccc(C2C(C(=O)c3cccs3)C(=O)C(=O)N2CCN2CCOCC2)c(OC)c1 (stereo unspecified) [2-(2,4-dimethoxyphenyl)-1-(2-morpholin-4-ylethyl)-4-oxidanyl-3-thiophen-2-ylcarbonyl-2H-pyrrol-5-one]
> 40.3 | COc1ccc(C2C(C(=O)c3ccco3)C(=O)C(=O)N2CCCN2CCOCC2)cc1OC (stereo unspecified) [2-(3,4-dimethoxyphenyl)-3-(furan-2-carbonyl)-4-hydroxy-1-(3-morpholin-4-ylpropyl)-2H-pyrrol-5-one]
> 40.3 | O=C1C(=O)N(CCc2ccccc2)C(c2ccc(Cl)cc2)C1C(=O)c1cccs1 (stereo unspecified) [2-(4-chlorophenyl)-4-hydroxy-1-(2-phenylethyl)-3-(thiophene-2-carbonyl)-2H-pyrrol-5-one]
> 40.3 | COc1cc(C2C(C(=O)c3cc4ccccc4o3)C(=O)C(=O)N2CCN(C)C)ccc1O (stereo unspecified) [3-(1-benzofuran-2-carbonyl)-1-[2-(dimethylamino)ethyl]-4-hydroxy-2-(4-hydroxy-3-methoxyphenyl)-2H-pyrrol-5-one]
> 40.3 | COc1ccc(C2C(C(=O)c3cc4ccccc4o3)C(=O)C(=O)N2CCN(C)C)cc1OC (stereo unspecified) [3-(1-benzofuran-2-carbonyl)-2-(3,4-dimethoxyphenyl)-1-[2-(dimethylamino)ethyl]-4-hydroxy-2H-pyrrol-5-one]
> 40.3 | O=C1C(=O)N(CCCn2ccnc2)C(c2cccnc2)C1C(=O)c1cc2ccccc2o1 (stereo unspecified) [3-(1-benzofuran-2-carbonyl)-4-hydroxy-1-(3-imidazol-1-ylpropyl)-2-pyridin-3-yl-2H-pyrrol-5-one]
> 40.3 | O=C1C(=O)N(CCCN2CCOCC2)C(c2cccnc2)C1C(=O)c1cc2ccccc2o1 (stereo unspecified) [3-(1-benzofuran-2-carbonyl)-4-hydroxy-1-(3-morpholin-4-ylpropyl)-2-pyridin-3-yl-2H-pyrrol-5-one]
> 40.3 | O=C1C(=O)N(CCCn2ccnc2)C(c2cccnc2)C1C(=O)c1ccco1 (stereo unspecified) [3-(furan-2-carbonyl)-4-hydroxy-1-(3-imidazol-1-ylpropyl)-2-pyridin-3-yl-2H-pyrrol-5-one]
> 40.3 | COc1ccc(OC)c(C2C(C(=O)c3ccc(C)cc3)C(=O)C(=O)N2CCC(=O)O)c1 (stereo unspecified) [3-[(3E)-2-(2,5-dimethoxyphenyl)-3-[(4-methylphenyl)-oxidanyl-methylidene]-4,5-bis(oxidanylidene)pyrrolidin-1-yl]propanoic acid]
> 40.3 | O=C(O)CCCN1C(=O)C(=O)C(C(=O)c2ccccc2)C1/C=C/c1ccccc1 (stereo unspecified) [4-[(4E)-2,3-bis(oxidanylidene)-4-[oxidanyl(phenyl)methylidene]-5-[(E)-2-phenylethenyl]pyrrolidin-1-yl]butanoic acid]
> 40.3 | COc1ccc(C2C(C(=O)c3ccco3)C(=O)C(=O)N2CCN2CCOCC2)c(OC)c1 (stereo unspecified) [5-(2,4-dimethoxyphenyl)-4-(furan-2-carbonyl)-3-hydroxy-1-(2-morpholinoethyl)-1H-pyrrol-2(5H)-one]
> 40.3 | COCCN1C(=O)C(=O)C(C(=O)c2ccccc2)C1c1ccc(C(C)C)cc1 (stereo unspecified) [(4E)-1-(2-methoxyethyl)-4-[oxidanyl(phenyl)methylidene]-5-(4-propan-2-ylphenyl)pyrrolidine-2,3-dione]
